Assay results from US10391070B2, “Compositions and methods for treating neurological diseases or injury” (MUSC FOUNDATION FOR RESEARCH DEVELOPMENT, priority 2012, dated 2019).

Columns and labels:
PTZ-induced seizures = test: PTZ-induced seizure (swim activity) model in zebrafish larvae; assay type: in vivo, zebrafish (Danio rerio)
Method: The DanioVision locomotion tracking instrument with Ethovision XT software (Noldus) was used to measure the severity of the seizures by quantifying the locomotor activity of each fish.
In a 48-well plate, one 6-7 dpf larva was added per well. Compounds were given at a sub-lethal dose and treated for 1 h. Three control rows were included—tank water (TW) only, PTZ only and PTZ+VPA (2-4 mM final concentration of VPA). […] After 5 min, the plate was transferred to the Daniovision apparatus and the chamber light was turned on. After 2 min, Ethovision was used to determine the distance traveled (a marker of seizure of activity) by each fish for 15 min (25 frames per second). Velocity, duration of movement, and frequency of movement were also determined from the same recording. After measurement, fish were monitored visually for survival. The distance moved over the recording period with Ethovision XT software (Noldus) was averaged over 8 wells per treatment unless the fish was not detected.
In a 48-well plate, one 7 dpf zebrafish was added per well. Larvae were dosed with each compound at a sub-lethal dose 1 h prior to PTZ treatment. Three control rows were included with each experiment—tank water only control, PTZ only and PTZ+VPA (4 mM final concentration of VPA). […] After 5 min, the plate was transferred to the Daniovision instrument (Noldus Information Technology) and the chamber light was turned on. After 2 min, MediaRecorder (Noldus) was used to record video for 15 min. A small number of videos were acquired 25 frames per second, but the majority of the data was acquired at the frame rate of 60 frames per second. After recording, fish were monitored visually for survival. Ethovision XT software (Noldus) was used to track the fish movement from the video images in order to calculate the total distance traveled over 15 min. […] All experimental comparisons were made between animals from the same clutch.

HT-22 neuronal cells = test: Respirometry (OCR, ECAR; Seahorse XF-96); assay type: cell-based, mouse; set-up: ECAR (glycolysis), difference from control: unit not given here; details: HT-22 cells, mean±SEM
Method: Oxygen consumption rates (OCR) and extracellular acidification rates (ECAR) of HT-22 neuronal cells were performed on the XF-96 Extracellular Flux Analyzer (Seahorse Bioscience) using standard methods (Beeson et al., 2010). In brief, cells were cultured in 96 well Seahorse plates in DMEM high glucose media (Invitrogen) supplemented with 10% FBS, 10 mM HEPES, and 1% antibiotic-antimycotic (Invitrogen). The media was replaced with DMEM media supplemented with 25 mM glucose, 10 mM sodium pyruvate, 31 mM NaCl, and 2 mM glutamine at pH 7.4. Each of the four drug ports on the Seahorse sensor cartridge were filled with test compound (media only, 5 μM NQN-1, 10 μM VK3 or 12.5 μM MB), 10 μM oligomycin, 1 μM FCCP, and 5 μM rotenone, which were injected into each well at 20, 80, 110, and 135 min, respectively. The pmol/min OCR rate for each well (9-52 wells/group) was measured. Wells were excluded from the analysis if their OCR values surpassed the Tukey Outlier Rule. In order to standardize the OCR rates across wells, the average OCR value at 17 min (last time point prior to injection of the test compounds) for each experimental group was calculated, and set to 100. All OCR values are given as a percentage of this pre-treatment value. […]

zebrafish larvae = test: Zebrafish larval toxicity (NOEC, lethal dose); assay type: in vivo; details: 7 dpf zebrafish larvae
Method: Using a 96-well plate, one zebrafish larva (7 dpf) was placed in each well in 100 μL of tank water (TW). 100 μL of each compound (0.5-15 μM) was then added to each well for 12 animals (one row) to give a final volume of 200 […]. A control row was tested for DMSO toxicity effects. […] Each drug was assessed for the no observed effect concentration (NOEC), the highest non-lethal dose resulting in no apparent toxic effects.
Zebrafish (AB strain) were obtained from the Zebrafish International Resource Center (supported by P40 RR012546 from NIH-NCRR). Zebrafish were maintained and crossed according to standard methods (Westerfield, 2000). Fertilized eggs were collected and placed in E3 embryo medium and positioned in an incubator set at 28.5° C. with a 14/10 h light/dark cycle (Kimmel et al., 1995). To determine the lethal dose of each compound, 96-well plates containing one zebrafish (7 days post-fertilization, dpf) per well in 100 μL of tank water were used. 100 μL of each compound (0.5 to 15 μM) was added to each well for 12 animals (one row) for a final volume of 200 μL. One row of larvae was used as DMSO only controls. […] All zebrafish studies were approved by the Medical University of South Carolina Institutional Animal Care and Use Committee (AR #2850) and performed in accordance with the guidelines.
Using a 96-well plate, one zebrafish larva (7 dpf) was placed in each well in 100 μL of tank water. 100 μL of each compound was then added to each well for 12 animals (one row) for a final volume of 200 μL. One row of zebrafish larvae was used as DMSO only controls. […] Toxicity was also measured in the mouse model by the NIH Anticonvulsant Screening Program at the National Institute of Neurological Disorders and Stroke (Stables and Kupferberg, 1997), according to the established NIH experimental procedures. Compounds were delivered into mice by intraperitoneal (i.p.) injection at a dose of 100 mg/kg in sterile 5% DMSO, 95% Neobee (Josey et al., 2013). Acute toxicity was assessed by monitoring the animals for impaired neuromuscular function by placing treated mice on a rod rotating at 6 rpm. […]

c-fos = c-fos gene expression in PTZ-treated zebrafish larvae; assay type: in vivo, zebrafish (Danio rerio); details: 7 dpf zebrafish, pre-treatment
Method: Ten 7 dpf larvae were placed in 500 μL tank water in wells of a 48-well cell-culture plate and appropriate concentrations of drugs were added as in the behavior study (Table 9). After a 1 h pre-incubation period, PTZ was added to a final concentration of 15 mM in appropriate wells and larvae were incubated for a further 45 min. Fish were quickly euthanized by incubating the plate in an ice-water bath for 15 min. Fish were removed from each well and all liquid removed before freezing at −80° C. RNA was extracted using Trizol (Invitrogen) followed by the RNeasy Mini kit (Qiagen). Frozen embryos were homogenized in 800 μL Trizol using in-tube pestles and a motorized homogenizer. Following a 5-min incubation at room temperature, 200 μL chloroform was added and the samples were centrifuged at 12,000 g for 10 min. The aqueous phase was transferred to a new tube and 250 μL 100% ethanol was added and the samples mixed. This mixture was then transferred to the Qiagen minicolumn assembly and the protocol followed as described with the kit. Samples were eluted in 30 μL RNase free water and concentration was determined using the Nanodrop instrument (Thermo Fisher). cDNA was prepared using the RETROscript kit (Ambion) with 500 ng total RNA. cDNA was then diluted 1:1 with sterile dH2O and 2.5 μL of this cDNA was used in the QPCR reaction with SsoAdvanced SYBR Green Supermix (BioRad) and c-fos primers designed to span an intron-exon junction (c-fos F: […], SEQ ID NO:9; c-fos R: […], SEQ ID NO:10) ([…] each) in the BioRad CFX96 RealTime instrument. L13a and EF1a gene expression were used for normalization (Rahn et al., 2013). The following cycle conditions were used: 95° C./3 min, 40 cycles of 95° C./15 s, 62° C./30 s, followed by 95° C. 30 s and a dissociation curve. Samples were run in duplicate. The 2^−ΔΔCt method was used to quantify gene expression, whereby all gene Ct values were first normalized to Ct values of the geometric mean of the Ct of L13a and EF1a (Livak and Schmittgen, 2001). Treated samples were then normalized to the tank water control and converted to fold change.

HDAC = HDAC isozymes inhibited; cited from earlier work

O=C(NC1=CC(=O)c2ccccc2C1=O)c1ccccc1 [2-benzoylamino-1,4-naphthoquinone]
concentration required for effective reduction of seizures (PTZ-induced seizures; PTZ-treated zebrafish larvae): 3 µM | Seizure suppression (PTZ-induced seizures; PTZ-treated zebrafish larvae, pretreated 1 hr at NOEC): Yes | PTZ-induced swim activity (distance traveled) (PTZ-induced seizures; zebrafish larvae, 1 h pretreatment at sub-lethal concentration (VPA 4 mM, NQN-1 3 μM), 15 mM PTZ): significantly suppressed PTZ-induced swim activity | basal cellular respiration, difference in OCR from control (HT-22 neuronal cells; 1 h treatment, OCR as percentage of pre-treatment value): 24.35±1.03 | basal mitochondrial respiration, difference from control (HT-22 neuronal cells; basal minus non-mitochondrial (rotenone)): 15.26±2.29 | ATP-linked respiration, difference from control (HT-22 neuronal cells; basal minus oligomycin): 16.83±1.83 | ECAR (glycolysis), difference from control (HT-22 neuronal cells): 1.75±1.12 | Lethal dose (zebrafish larvae; up to 5 h treatment): 0.005 mM | Highest concentration tested for anti-seizure activity (zebrafish larvae; highest sub-lethal dose): 0.003 mM | PTZ-induced increase in c-fos expression (c-fos): able to blunt this increase in expression | HDAC Class of Inhibition (HDAC): 6
